Results from ChEMBL document CHEMBL3885881, “DrugMatrix”.

Species on record: Rattus norvegicus
Assay: DrugMatrix - Regimen: Daily Repeat
Type: toxicity, organism-based, Sprague-Dawley
Design: regimen Daily Repeat, gender Male, age 6-8 weeks
Settings: in vivo, po, route oral GAVAGE, vehicle .5 % CMC; for ABSOLUTE BASOPHIL / ABSOLUTE EOSINOPHIL / ABSOLUTE LYMPHOCYTE / ABSOLUTE MONOCYTE / ABSOLUTE SEGMENTED NEUTROPHIL / BASOPHIL / EOSINOPHIL / ERYTHROCYTE COUNT / HEMATOCRIT / HEMOGLOBIN / LEUKOCYTE COUNT / LYMPHOCYTE / MEAN CORPUSCULAR HEMOGLOBIN / MEAN CORPUSCULAR HEMOGLOBIN CONCENTRATION / MEAN CORPUSCULAR VOLUME / MONOCYTE / NEUTROPHIL / NUCLEATED RED BLOOD CELLS / PLATELET COUNT: tissue Blood; for ALANINE AMINOTRANSFERASE / ALBUMIN / ALKALINE PHOSPHATASE / ASPARTATE AMINOTRANSFERASE / BLOOD UREA NITROGEN / CARBON DIOXIDE / CHLORIDE / CHOLESTEROL / CREATINE PHOSPHOKINASE / CREATININE / GLUCOSE / LACTATE DEHYDROGENASE / LIPASE / PHOSPHORUS / POTASSIUM / SODIUM / TOTAL BILIRUBIN / TOTAL PROTEIN / URIC ACID: tissue Plasma
[1] = 0 mg/kg, 72 h, dose level Control, time 3 day
[2] = 0 mg/kg, 120 h, dose level Control, time 5 day
[3] = 16 mg/kg, 72 h, dose level Low, time 3 day

`CCOC(=O)OC(C)OC1=C(C(=O)Nc2ccccn2)N(C)S(=O)(=O)c2ccccc21` (centres undefined) [AMPIROXICAM] was tested. Which “ABSOLUTE BASOPHIL” value [1] did it give?
The value was 0 CELLS/uL.

And the “ABSOLUTE EOSINOPHIL” value [1]?
Its value is 15.17 CELLS/uL.

What about the “ABSOLUTE LYMPHOCYTE” value [1] of the same molecule?
Its value is 10149.83 CELLS/uL.

What about the “ABSOLUTE MONOCYTE” value [1] of the same molecule?
Its value is 193.33 CELLS/uL.

And the “ABSOLUTE SEGMENTED NEUTROPHIL” value [1]?
The value was 1575 CELLS/uL.

And the BASOPHIL [1]?
The BASOPHIL was 0%.

And the EOSINOPHIL [1]?
Its EOSINOPHIL is 0.17%.

What about the “ERYTHROCYTE COUNT” value [1] of the same molecule?
Its value is 5.53 x10E6/uL.

And the HEMATOCRIT [1]?
The HEMATOCRIT was 34.7%.

And the HEMOGLOBIN [1]?
The HEMOGLOBIN was 12.78 G/DL.

And the “LEUKOCYTE COUNT” value [1]?
Its value is 11.93 x10E3/uL.

And the LYMPHOCYTE [1]?
The LYMPHOCYTE was 85.5%.

And the “MEAN CORPUSCULAR HEMOGLOBIN” value [1]?
The value was 23.15 pg.

And the “MEAN CORPUSCULAR HEMOGLOBIN CONCENTRATION” value [1]?
Its value is 36.9 G/DL.

And the “MEAN CORPUSCULAR VOLUME” value [1]?
The value was 62.82 fL.

And the MONOCYTE [1]?
Its MONOCYTE is 1.5%.

What about the NEUTROPHIL [1] of the same molecule?
The NEUTROPHIL was 12.83%.

And the “NUCLEATED RED BLOOD CELLS” value [1]?
Its value is 0.5 /100WBC.

And the “PLATELET COUNT” value [1]?
The value was 994.17 x10E3/uL.

What about the “ALANINE AMINOTRANSFERASE” value [1] of the same molecule?
Its value is 48.17 u/L.

And the ALBUMIN [1]?
The ALBUMIN was 4.37 G/DL.

What about the “ALKALINE PHOSPHATASE” value [1] of the same molecule?
The value was 436.5 u/L.

What about the “ASPARTATE AMINOTRANSFERASE” value [1] of the same molecule?
The value was 83.17 u/L.

And the “BLOOD UREA NITROGEN” value [1]?
Its value is 14.67 mg/dL.

What about the “CARBON DIOXIDE” value [1] of the same molecule?
The value was 30.83 mmol/L.

What about the CHLORIDE [1] of the same molecule?
Its CHLORIDE is 99.17 MEQ/L.

What about the CHOLESTEROL [1] of the same molecule?
Its CHOLESTEROL is 86.33 mg/dL.

What about the “CREATINE PHOSPHOKINASE” value [1] of the same molecule?
The value was 243.33 u/L.

What about the CREATININE [1] of the same molecule?
Its CREATININE is 0.25 mg/dL.

What about the GLUCOSE [1] of the same molecule?
The GLUCOSE was 158 mg/dL.

And the “LACTATE DEHYDROGENASE” value [1]?
The value was 262.33 u/L.

And the LIPASE [1]?
Its LIPASE is 11 u/L.

And the PHOSPHORUS [1]?
The PHOSPHORUS was 12.07 mg/dL.

And the POTASSIUM [1]?
Its POTASSIUM is 6.52 MEQ/L.

What about the SODIUM [1] of the same molecule?
The SODIUM was 142.45 MEQ/L.

What about the “TOTAL BILIRUBIN” value [1] of the same molecule?
Its value is 0.17 mg/dL.

What about the “TOTAL PROTEIN” value [1] of the same molecule?
The value was 6.25 G/DL.

And the “URIC ACID” value [1]?
The value was 1.42 mg/dL.

And the “ABSOLUTE BASOPHIL” value [2]?
The value was 0 CELLS/uL.

What about the “ABSOLUTE EOSINOPHIL” value [2] of the same molecule?
The value was 0 CELLS/uL.

What about the “ABSOLUTE LYMPHOCYTE” value [2] of the same molecule?
The value was 10076.67 CELLS/uL.

And the “ABSOLUTE MONOCYTE” value [2]?
The value was 124 CELLS/uL.

What about the “ABSOLUTE SEGMENTED NEUTROPHIL” value [2] of the same molecule?
The value was 966 CELLS/uL.

What about the BASOPHIL [2] of the same molecule?
The BASOPHIL was 0%.

And the EOSINOPHIL [2]?
Its EOSINOPHIL is 0%.

And the “ERYTHROCYTE COUNT” value [2]?
The value was 5.57 x10E6/uL.

What about the HEMATOCRIT [2] of the same molecule?
Its HEMATOCRIT is 33.37%.

And the HEMOGLOBIN [2]?
The HEMOGLOBIN was 12.73 G/DL.

What about the “LEUKOCYTE COUNT” value [2] of the same molecule?
The value was 11.17 x10E3/uL.

And the LYMPHOCYTE [2]?
Its LYMPHOCYTE is 90.33%.

And the “MEAN CORPUSCULAR HEMOGLOBIN” value [2]?
The value was 22.9 pg.

What about the “MEAN CORPUSCULAR HEMOGLOBIN CONCENTRATION” value [2] of the same molecule?
The value was 38.18 G/DL.

And the “MEAN CORPUSCULAR VOLUME” value [2]?
The value was 59.97 fL.

What about the MONOCYTE [2] of the same molecule?
Its MONOCYTE is 1%.

And the NEUTROPHIL [2]?
The NEUTROPHIL was 8.67%.

What about the “NUCLEATED RED BLOOD CELLS” value [2] of the same molecule?
Its value is 0 /100WBC.

What about the “PLATELET COUNT” value [2] of the same molecule?
The value was 1078 x10E3/uL.

And the “ALANINE AMINOTRANSFERASE” value [2]?
The value was 37.17 u/L.

What about the ALBUMIN [2] of the same molecule?
Its ALBUMIN is 4.2 G/DL.

And the “ALKALINE PHOSPHATASE” value [2]?
Its value is 322.17 u/L.

What about the “ASPARTATE AMINOTRANSFERASE” value [2] of the same molecule?
Its value is 67.67 u/L.

What about the “BLOOD UREA NITROGEN” value [2] of the same molecule?
Its value is 14 mg/dL.

And the “CARBON DIOXIDE” value [2]?
The value was 27.67 mmol/L.

What about the CHLORIDE [2] of the same molecule?
Its CHLORIDE is 102.17 MEQ/L.

What about the CHOLESTEROL [2] of the same molecule?
Its CHOLESTEROL is 67.67 mg/dL.

And the “CREATINE PHOSPHOKINASE” value [2]?
The value was 171.83 u/L.

What about the CREATININE [2] of the same molecule?
The CREATININE was 0.27 mg/dL.

What about the GLUCOSE [2] of the same molecule?
The GLUCOSE was 172 mg/dL.

And the “LACTATE DEHYDROGENASE” value [2]?
The value was 85.33 u/L.

And the LIPASE [2]?
The LIPASE was 8.67 u/L.

What about the PHOSPHORUS [2] of the same molecule?
Its PHOSPHORUS is 12 mg/dL.

And the POTASSIUM [2]?
The POTASSIUM was 6.09 MEQ/L.

And the SODIUM [2]?
Its SODIUM is 144.82 MEQ/L.

And the “TOTAL BILIRUBIN” value [2]?
The value was 0.13 mg/dL.

And the “TOTAL PROTEIN” value [2]?
Its value is 6.07 G/DL.

What about the “URIC ACID” value [2] of the same molecule?
Its value is 2.13 mg/dL.

What about the “ABSOLUTE BASOPHIL” value [3] of the same molecule?
Its value is 0 CELLS/uL.

What about the “ABSOLUTE EOSINOPHIL” value [3] of the same molecule?
The value was 0 CELLS/uL.

And the “ABSOLUTE LYMPHOCYTE” value [3]?
The value was 13036.33 CELLS/uL.

And the “ABSOLUTE MONOCYTE” value [3]?
Its value is 91.33 CELLS/uL.

And the “ABSOLUTE SEGMENTED NEUTROPHIL” value [3]?
The value was 1372.33 CELLS/uL.

And the BASOPHIL [3]?
The BASOPHIL was 0%.

What about the EOSINOPHIL [3] of the same molecule?
The EOSINOPHIL was 0%.

And the “ERYTHROCYTE COUNT” value [3]?
The value was 5.36 x10E6/uL.

And the HEMATOCRIT [3]?
The HEMATOCRIT was 33.57%.

What about the HEMOGLOBIN [3] of the same molecule?
The HEMOGLOBIN was 12.5 G/DL.

And the “LEUKOCYTE COUNT” value [3]?
Its value is 14.5 x10E3/uL.

What about the LYMPHOCYTE [3] of the same molecule?
The LYMPHOCYTE was 89.33%.

What about the “MEAN CORPUSCULAR HEMOGLOBIN” value [3] of the same molecule?
The value was 23.33 pg.

And the “MEAN CORPUSCULAR HEMOGLOBIN CONCENTRATION” value [3]?
Its value is 37.23 G/DL.

And the “MEAN CORPUSCULAR VOLUME” value [3]?
The value was 62.67 fL.

What about the MONOCYTE [3] of the same molecule?
The MONOCYTE was 0.67%.

And the NEUTROPHIL [3]?
Its NEUTROPHIL is 10%.

And the “NUCLEATED RED BLOOD CELLS” value [3]?
The value was 0 /100WBC.

What about the “PLATELET COUNT” value [3] of the same molecule?
Its value is 1061.33 x10E3/uL.

And the “ALANINE AMINOTRANSFERASE” value [3]?
Its value is 57.33 u/L.

What about the ALBUMIN [3] of the same molecule?
The ALBUMIN was 4.3 G/DL.

What about the “ALKALINE PHOSPHATASE” value [3] of the same molecule?
The value was 431 u/L.

And the “ASPARTATE AMINOTRANSFERASE” value [3]?
Its value is 100.67 u/L.

And the “BLOOD UREA NITROGEN” value [3]?
Its value is 12.67 mg/dL.

And the “CARBON DIOXIDE” value [3]?
The value was 32.33 mmol/L.

What about the CHLORIDE [3] of the same molecule?
Its CHLORIDE is 101.33 MEQ/L.

And the CHOLESTEROL [3]?
Its CHOLESTEROL is 86.33 mg/dL.

What about the “CREATINE PHOSPHOKINASE” value [3] of the same molecule?
The value was 214.33 u/L.

What about the CREATININE [3] of the same molecule?
Its CREATININE is 0.25 mg/dL.

And the GLUCOSE [3]?
Its GLUCOSE is 155.33 mg/dL.

What about the “LACTATE DEHYDROGENASE” value [3] of the same molecule?
Its value is 113.33 u/L.

What about the LIPASE [3] of the same molecule?
Its LIPASE is 11.67 u/L.

And the PHOSPHORUS [3]?
The PHOSPHORUS was 11.83 mg/dL.

What about the POTASSIUM [3] of the same molecule?
The POTASSIUM was 6.74 MEQ/L.

And the SODIUM [3]?
Its SODIUM is 145.43 MEQ/L.

What about the “TOTAL BILIRUBIN” value [3] of the same molecule?
The value was 0.13 mg/dL.

What about the “TOTAL PROTEIN” value [3] of the same molecule?
Its value is 6.13 G/DL.

And the “URIC ACID” value [3]?
Its value is 1.73 mg/dL.
